Measurements published in patent publication US20070072897A1, “Phenylaminopropanol derivatives and methods of their use” (Wyeth, priority 2005, published 2007).
Counter-ions that a name gives are not always drawn.

Legend:
[1] = molecular target: T1, human 5-HT2A receptor (Homo sapiens, UniProt P28223); assay: 5-HT2A FLIPR assay (calcium response to DOI) in CHO cells; assay type: cell-based; conditions: for IC50: antagonist inhibition of 3 nM DOI stimulation, CHO cells, FLIPR; for inhibition at 1 µM: CHO, read-out: 5-HT2A Percentage inhibition at 1 μM
T1 construct: expressed in transfected cells; host or cells: CHO
Protocol: Cells are washed with PBS without Ca^2+ and 3 mL Trypsin is added to dissociate cells. After 3 minute incubation, 7 mL Trypsin Neutralizing Solution is added. Cells are then aspirated from flask and mixed in a 50 mL conical tube. 10 μL sample is used to count cells on a hemacytometer. […] Two 96-well drug plates are prepared for each cell plate. Plate 1 will contain compounds to be tested and plate 2 will contain the agonist DOI (3 nM) to activate a calcium response. Specific details of compound preparation are listed below. […] Outside wells are not used due to an edge effect seen in these cells. The reference compounds DOI and 5-HT are used as standard 5HT agonists. […] Standards for plate one are Vehicle, 1 μM DOI, and 3 nM MDL. […] On the day of the assay, test compound solutions of appropriate concentrations are diluted in assay buffer as described for single concentration testing. This procedure is followed to ensure that the solvent concentration is consistent across dilutions. The typical concentration testing range of compounds is 10^−10—10^−5 M in half log or full log increments. A 10 μM DOI stock is diluted to 60 nM and added to the respective wells. The pipeting station of the FLIPR will make an additional 20-fold dilution for a final concentration of 3 nM. Standards for this plate include Vehicle and 3 nM DOI. Contents of dye vial (Molecular Devices #R8090) are dissolved in 100 mL of 1×HBSS supplemented with 20 mM HEPES. Aliquots can be frozen at −20° C. for up to one week for future use. On the day of assay, dye is thawed and diluted to half concentration. […] Cells are allowed to adhere for 24 hours in 96-well plates. […] Cell, compound and DOI plates are loaded into the FLIPR machine. The baseline fluorescence level is read once every second for 1 minute. Compound (10 μL) is transferred from the compound plate to the cells and the fluorescence level recorded every 6 seconds for 2 minutes to determine any agonist activity. Baseline fluorescence is recorded again every second for 10 seconds. For antagonist determination, 10 μL of 3 nM DOI is transferred from the DOI plate to the cells and the fluorescence level recorded every 6 seconds for 5 minutes. The pipetting unit of the FLIPR machine completes all transfers. […] The data are log transformed prior to analysis.

[2] = molecular target: T2, human hNET (Homo sapiens, UniProt P23975); assay: Norepinephrine (NE) uptake assay in MDCK-Net6 cells; assay type: cell-based; conditions: [3H]NE uptake; for EC50: MDCK-Net6 cells stably transfected with hNET; for inhibition at 1 µM: MDCK-Net6 cells, read-out: hNET Percentage inhibition at 1 μM
T2 construct: expressed in transfected cells; host or cells: MDCK (MDCK-Net6)
Protocol: Cells were plated at 300,000/T75 flask and cells were split twice weekly. […] Cells were plated at 250,000 cells/T75 flask and split twice weekly.
Norepinephrine (NE) Uptake Assay
On day 1, cells were plated at 3,000 cells/well in growth medium and maintained in a cell incubator (37° C., 5% CO2). On day 2, growth medium was replaced with 200 μl of assay buffer (25 mM HEPES; 120 mM NaCl; 5 mM KCl; 2.5 mM CaCl2; 1.2 mM MgSO4; 2 mg/ml glucose (pH 7.4, 37° C.)) containing 0.2 mg/ml ascorbic acid and 10 μM pargyline. Plates containing cells with 200 μl of assay buffer were equilibrated for 10 minutes at 37° C. prior to addition of compounds. A stock solution of desipramine was prepared in DMSO (10 mM) and delivered to triplicate wells containing cells for a final test concentration of 1 μM. Data from these wells were used to define non-specific NE uptake (minimum NE uptake). Test compounds were prepared in DMSO (10 mM) and diluted in assay buffer according to test range (1 to 10,000 nM). Twenty-five microliters of assay buffer (maximum NE uptake) or test compound were added directly to triplicate wells containing cells in 200 μl of assay buffer. The cells in assay buffer with test compounds were incubated for 20 minutes at 37° C. […] The reaction was terminated by decanting the supernatant from the plate. The plates containing cells were washed twice with 200 μl assay buffer (37° C.) to remove free radioligand. The plates were then inverted, left to dry for 2 minutes, then reinverted and air-dried for an additional 10 minutes. […] After cell lysis, 75 μl of scintillation cocktail was added to each well and the plates were sealed with film tape. The plates were returned to the shake table and vigorously shaken for a minimum of 10 minutes to ensure adequate partitioning of organic and aqueous solutions. The plates were counted in a Wallac Microbeta counter (PerkinElmer) to collect the raw cpm data.
For each experiment, a data stream of cpm values collected from the Wallac Microbeta counter was downloaded to a Microsoft Excel statistical application program. Calculations of EC50 values were made using the transformed-both-sides logistic dose response program written by Wyeth Biometrics Department.

T2 sequence (P23975 whole entry): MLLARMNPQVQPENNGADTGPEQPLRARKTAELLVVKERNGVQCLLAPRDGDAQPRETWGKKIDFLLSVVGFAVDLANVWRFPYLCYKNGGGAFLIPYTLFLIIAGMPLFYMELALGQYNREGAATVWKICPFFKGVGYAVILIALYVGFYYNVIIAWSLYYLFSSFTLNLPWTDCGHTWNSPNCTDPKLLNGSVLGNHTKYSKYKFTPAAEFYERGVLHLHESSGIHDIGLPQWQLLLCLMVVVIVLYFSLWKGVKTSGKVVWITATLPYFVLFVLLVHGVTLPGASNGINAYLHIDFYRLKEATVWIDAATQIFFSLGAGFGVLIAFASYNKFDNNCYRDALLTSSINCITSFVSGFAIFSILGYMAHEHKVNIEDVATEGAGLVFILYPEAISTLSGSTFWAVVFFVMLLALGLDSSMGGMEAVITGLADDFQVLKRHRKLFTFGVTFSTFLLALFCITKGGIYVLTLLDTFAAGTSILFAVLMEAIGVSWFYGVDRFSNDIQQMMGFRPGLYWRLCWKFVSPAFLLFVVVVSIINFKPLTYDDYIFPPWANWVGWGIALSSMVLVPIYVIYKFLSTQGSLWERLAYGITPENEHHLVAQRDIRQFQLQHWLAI
T1 sequence (P28223 whole entry): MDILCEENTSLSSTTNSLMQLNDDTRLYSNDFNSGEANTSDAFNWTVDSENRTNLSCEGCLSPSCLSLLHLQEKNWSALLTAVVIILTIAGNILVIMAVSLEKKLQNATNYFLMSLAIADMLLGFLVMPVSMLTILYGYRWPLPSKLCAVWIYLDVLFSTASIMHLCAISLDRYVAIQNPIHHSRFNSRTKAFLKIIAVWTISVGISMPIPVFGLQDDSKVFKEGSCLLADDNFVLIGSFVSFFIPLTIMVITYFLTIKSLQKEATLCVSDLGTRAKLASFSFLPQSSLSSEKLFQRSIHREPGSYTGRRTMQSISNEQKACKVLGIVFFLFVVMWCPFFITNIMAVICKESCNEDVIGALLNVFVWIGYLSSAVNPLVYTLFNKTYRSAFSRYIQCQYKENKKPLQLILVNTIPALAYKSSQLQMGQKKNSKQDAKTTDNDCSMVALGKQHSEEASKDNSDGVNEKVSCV

EC50 [2] | SMILES | also measured
62 nM | CNC[C@@H](O)[C@H](c1cc(F)cc(Cl)c1)n1ccc2ccccc21 [Example 70, (1S,2R)-1-(3-chloro-5-fluorophenyl)-1-(1H-indol-1-yl)-3-(methylamino)propan-2-ol hydrochloride] | 
6 nM | CNC[C@@H](O)[C@H](c1cccc(F)c1)N1C(=O)C2(CCCCC2)c2cccc(F)c21 [Example 110, 7′-fluoro-1′-[(1S,2R)-1-(3-fluorophenyl)-2-hydroxy-3-(methylamino)propyl]spiro[cyclohexane-1,3′-indol]-2′(1′H)-one hydrochloride] | 
186 nM | CNC[C@@H](O)[C@H](c1cccc(Cl)c1)N1C(=O)C2(CCCCC2)c2ccc(F)cc21 [Example 111, 1′-[(1S,2R)-1-(3-chlorophenyl)-2-hydroxy-3-(methylamino)propyl]-6′-fluorospiro[cyclohexane-1,3′-indol]-2′(1′H)-one hydrochloride] | 
2 nM | CNC[C@@H](O)[C@H](c1cc(F)cc(Cl)c1)N1C(=O)C(C)(C)c2cccc(F)c21 [Example 112, 1-[(1S,2R)-1-(3-chloro-5-fluorophenyl)-2-hydroxy-3-(methylamino)propyl]-7-fluoro-3,3-dimethyl-1,3-dihydro-2H-indol-2-one hydrochloride] | 
33 nM | CNC[C@@H](O)[C@H](c1cc(F)cc(Cl)c1)N1CCc2ccccc21 [Example 113, (1S,2R)-1-(3-chloro-5-fluorophenyl)-1-(2,3-dihydro-1H-indol-1-yl)-3-(methylamino)propan-2-ol hydrochloride] | 
166 nM | CNC[C@@H](O)[C@H](c1cc(F)cc(Cl)c1)N1CC(C)(C)c2cccc(F)c21 [Example 114, (1S,2R)-1-(3-chloro-5-fluorophenyl)-1-(7-fluoro-3,3-dimethyl-2,3-dihydro-1H-indol-1-yl)-3-(methylamino)propan-2-ol hydrochloride] | 
133 nM | CNC[C@@H](O)[C@H](c1cc(F)cc(Cl)c1)N1CC(C)(C)c2ccccc21 [Example 115, (1S,2R)-1-(3-chloro-5-fluorophenyl)-1-(3,3-dimethyl-2,3-dihydro-1H-indol-1-yl)-3-(methylamino)propan-2-ol hydrochloride] | 
10 nM | CNC[C@@H](O)[C@H](c1cccc(F)c1)N1C(=O)C2(CCC2)c2cccc(F)c21 [Example 116, 7′-fluoro-1′-[(1S,2R)-1-(3-fluorophenyl)-2-hydroxy-3-(methylamino)propyl]spiro[cyclobutane-1,3′-indol]-2′(1′H)-one hydrochloride] | 
2 nM | CNC[C@@H](O)[C@H](c1cccc(F)c1)N1C(=O)C2(CCCC2)c2cccc(F)c21 [Example 117, 7′-fluoro-1′-[(1S,2R)-1-(3-fluorophenyl)-2-hydroxy-3-(methylamino)propyl]spiro[cyclopentane-1,3′-indol]-2′(1′H)-one hydrochloride] | 
40 nM | CNC[C@@H](O)[C@H](c1cccc(F)c1)N1C(=O)C(C)(C)c2ccc(F)cc21 [Example 118, 6-fluoro-1-[(1S,2R)-1-(3-fluorophenyl)-2-hydroxy-3-(methylamino)propyl]-3,3-dimethyl-1,3-dihydro-2H-indol-2-one hydrochloride] | 
92 nM | CNC[C@@H](O)[C@H](c1cccc(F)c1)n1c(=O)n(-c2ccccc2)c2cccc(F)c21 [Example 120, 4-fluoro-3-[(1S,2R)-1-(3-fluorophenyl)-2-hydroxy-3-(methylamino)propyl]-1-phenyl-1,3-dihydro-2H-benzimidazol-2-one hydrochloride] | 
189 nM | CNC[C@@H](O)[C@H](c1cccc(F)c1)n1c(=O)n(-c2cccc(F)c2)c2cccc(F)c21 [Example 121, 4-fluoro-1-(3-fluorophenyl)-3-[(1S,2R)-1-(3-fluorophenyl)-2-hydroxy-3-(methylamino)propyl]-1,3-dihydro-2H-benzimidazol-2-one hydrochloride] | 

Second part, the compound before the results:

SMILES | EC50 [2] | also measured
CNC[C@@H](O)[C@H](c1ccccc1)n1ccc2cc(OC(C)c3ccccc3)ccc21 (mixture of isomers) [Example 17, (1S,2R)-3-(methylamino)-1-phenyl-1-[5-(1RS)-(1-phenylethoxy)-1H-indol-1-yl]propan-2-ol hydrochloride] | 873 nM | IC50 [1]: 2640 nM
CNC[C@@H](O)[C@H](c1ccccc1)n1ccc2cc(OCc3ccccc3)ccc21 [Example 1, (1S,2R)-1-[5-(benzyloxy)-1H-indol-1-yl]-3-(methylamino)-1-phenylpropan-2-ol hydrochloride] | 18 nM | IC50 [1]: 234 nM
CNC[C@@H](O)[C@H](c1ccccc1)n1ccc2c(OCc3ccccc3)cccc21 [Example 2, (1S,2R)-1-[4-(benzyloxy)-1H-indol-1-yl]-3-(methylamino)-1-phenylpropan-2-ol hydrochloride] | 310 nM | inhibition at 1 µM [1]: 29%
CNC[C@@H](O)[C@H](c1ccccc1)n1ccc2ccc(OCc3ccccc3)cc21 [Example 3, (1S,2R)-1-[6-(benzyloxy)-1H-indol-1-yl]-3-(methylamino)-1-phenylpropan-2-ol hydrochloride] |  | inhibition at 1 µM [1]: 39%; inhibition at 1 µM [2]: 2%
CNC[C@@H](O)[C@H](c1ccccc1)n1ccc2cccc(OCc3ccccc3)c21 [Example 4, (1S,2R)-1-[7-(benzyloxy)-1H-indol-1-yl]-3-(methylamino)-1-phenylpropan-2-ol hydrochloride] |  | IC50 [1]: 1470 nM; inhibition at 1 µM [2]: 20%
CNC[C@@H](O)[C@H](c1ccccc1)n1ccc2cc(OCc3ccccc3OC)ccc21 [Example 5, (1S,2R)-1-{5-[(2-methoxybenzyl)oxy]-1H-indol-1-yl}-3-(methylamino)-1-phenylpropan-2-ol hydrochloride] | 196 nM | IC50 [1]: 678 nM
CNC[C@@H](O)[C@H](c1ccccc1)n1ccc2cc(OCc3cccc(OC)c3)ccc21 [Example 6, (1S,2R)-1-{5-[(3-methoxybenzyl)oxy]-1H-indol-1-yl}-3-(methylamino)-1-phenylpropan-2-ol hydrochloride] | 17 nM | IC50 [1]: 888 nM
CNC[C@@H](O)[C@H](c1ccccc1)n1ccc2cc(OCc3ccccn3)ccc21 [Example 92, (1S,2R)-3-(methylamino)-1-phenyl-1-[5-(pyridin-2-ylmethoxy)-1H-indol-1-yl]propan-2-ol hydrochloride] | 9 nM | 
CNC[C@@H](O)[C@H](c1ccccc1)N1CCc2cccc(F)c21 [Example 119, (1S,2R)-1-(7-Fluoro-2,3-dihydro-1H-indol-1-yl)-3-(methylamino)-1-phenylpropan-2-ol hydrochloride] | 39 nM | 
CC1(C)C(=O)N([C@@H](c2cc(F)cc(F)c2)[C@H](O)CN)c2c(F)cccc21 [Example 122, 1-[(1S,2R)-3-amino-1-(3,5-difluorophenyl)-2-hydroxypropyl]-7-fluoro-3,3-dimethyl-1,3-dihydro-2H-indol-2-one] | 207 nM | 
